Data on 2 molecules can be found in patent publication US8414958B2, “Implant and method for the manufacture thereof” (Thommen Medical AG, priority 2008, dated 2013).

One data set deals with parietal bone of rabbits. The conditions noted are these: parietal bone fractures, collagen sponges; cited from earlier work.
The subject of a further data set is tibias of rats. The conditions noted are these: titanium implants in tibias, daily into the abdominal cavity; cited from earlier work.
A further data set has as its system bones of rats. The following applies: calcium sulfate carrier disks, eight weeks, compared to control group; cited from earlier work.
The test system of a further data set is jawbones of rats. The following applies: jawbone fractures, gelatin sponges; cited from earlier work.
Data set [1] can be described thus: Solubility in ethanol and ethanol/water mixtures. It counts as physicochemical.

Consider `CCC(C)(C)C(=O)O[C@H]1C[C@@H](C)C=C2C=CC(C)[C@H](CC[C@@H]3C[C@@H](O)CC(=O)O3)[C@H]21` (stereo in doubt) [simvastatin, [(1S,3R,7R,8S,8aR)-8-[2-[(2R,4R)-4-hydroxy-6-oxo-oxan-2-yl]ethyl]-3,7-dimethyl-1,2,3,7,8,8a-hexahydronaphthalen-1-yl] 2,2-dimethylbutanoate], for which the “formation of new bone” value in the data set with parietal bone of rabbits is given as “accelerated formation of new bone”. For the same molecule, in the data set on tibias of rats, the “bone density around the implant” value was “significant increase”. Besides, in the data set with bones of rats, the bone density result is reported as “significant increase”, the bone mineral density result was “significant increase” and the “mineral content of the bones” value is reported as “significant increase”. In the data set with jawbones of rats, the “bone density above that of the control group receiving no active ingredient” value is reported as 190-240% and the “formation of new bone in histological studies” value is “enhanced formation of new bone was detectable”.

`CCC(C)(C)C(=O)O[C@H]1C[C@@H](C)C=C2C=C[C@H](C)[C@H](CC[C@@H](O)C[C@@H](O)CC(=O)O)[C@H]21` [open-chain acid form of simvastatin]: the solubility in water result is recorded as “water-soluble”. Also, the “ethanol content of the ethanol/water mixture in which the substance dissolves” value in data set [1] was 25 % ethanol.
